# Assay results from patent publication US7261880B2, “Methods of treating Syndrome X with aliphatic polyamines” (priority 2001, dated 2007).
# Read-outs that look alike come from different tables or passages of the source. Marks after values point to notes of the source that are not given here.
# Columns and labels:
# [1] = tested on: patients with primary hypercholesterolemia; conditions: 4 weeks
# [2] = tested on: patients with primary hypercholesterolemia; conditions: Lovastatin 10 mg/day, 4 weeks
# [3] = tested on: patients with primary hypercholesterolemia; test: Simvastatin Trial (6-week), colesevelam in combination with simvastatin; format: in vivo, human; conditions: 6 weeks
compound,measurement,setting,value
"CC(C)c1c(C(=O)Nc2ccccc2)c(-c2ccccc2)c(-c2ccc(F)cc2)n1CC[C@@H](O)C[C@@H](O)CC(=O)O [Atorvastatin, atorvastatin]",Apo B mean percentage change,[1]; Atorvastatin 10 mg/day,−32* %
same,HDL-C median percentage change,[1]; Atorvastatin 10 mg/day,+8%
same,LDL-C mean percentage change,[1]; Atorvastatin 10 mg/day,−38* %
same,TG median percentage change,[1]; Atorvastatin 10 mg/day,−24* %
same,Total-C mean percentage change,[1]; Atorvastatin 10 mg/day,−27* %
same,Apo B mean percentage change,[1]; Atorvastatin 80 mg/day,−46* %
same,HDL-C median percentage change,[1]; Atorvastatin 80 mg/day,+6%
same,LDL-C mean percentage change,[1]; Atorvastatin 80 mg/day,−53* %
same,TG median percentage change,[1]; Atorvastatin 80 mg/day,−33* %
same,Total-C mean percentage change,[1]; Atorvastatin 80 mg/day,−39* %
"CC[C@H](C)C(=O)O[C@H]1C[C@@H](C)C=C2C=C[C@H](C)[C@H](CC[C@@H]3C[C@@H](O)CC(=O)O3)[C@H]21 [Lovastatin, lovastatin]",Apo B mean percentage change,[2],−16%
same,HDL-C median percentage change,[2],+5%
same,LDL-C mean percentage change,[2],−22* %
same,TG median percentage change,[2],0%
same,Total-C mean percentage change,[2],−14* %
"CCC(C)(C)C(=O)O[C@H]1C[C@@H](C)C=C2C=C[C@H](C)[C@H](CC[C@@H]3C[C@@H](O)CC(=O)O3)[C@H]21 [Simvastatin, simvastatin]",Apo B mean percentage change,[3]; Simvastatin 10 mg/day,−20* %
same,HDL-C median percentage change,[3]; Simvastatin 10 mg/day,+3* %
same,LDL-C mean percentage change,[3]; Simvastatin 10 mg/day,−26* %
same,TG median percentage change,[3]; Simvastatin 10 mg/day,−17* %
same,Total-C mean percentage change,[3]; Simvastatin 10 mg/day,−19* %
same,Apo B mean percentage change,[3]; Simvastatin 20 mg/day,−26* %
same,HDL-C median percentage change,[3]; Simvastatin 20 mg/day,+7* %
same,LDL-C mean percentage change,[3]; Simvastatin 20 mg/day,−34* %
same,TG median percentage change,[3]; Simvastatin 20 mg/day,−12* %
same,Total-C mean percentage change,[3]; Simvastatin 20 mg/day,−23* %
